{"source": "paper PMC3483369", "about": "(Molecular cell, 2012)", "type_in_all_cases": "biochemical", "key": {"GuaB (IMP dehydrogenase)": {"molecular_target": "GuaB (IMP dehydrogenase) (Bacillus subtilis, UniProt P21879)", "sequence (P21879 whole entry)": "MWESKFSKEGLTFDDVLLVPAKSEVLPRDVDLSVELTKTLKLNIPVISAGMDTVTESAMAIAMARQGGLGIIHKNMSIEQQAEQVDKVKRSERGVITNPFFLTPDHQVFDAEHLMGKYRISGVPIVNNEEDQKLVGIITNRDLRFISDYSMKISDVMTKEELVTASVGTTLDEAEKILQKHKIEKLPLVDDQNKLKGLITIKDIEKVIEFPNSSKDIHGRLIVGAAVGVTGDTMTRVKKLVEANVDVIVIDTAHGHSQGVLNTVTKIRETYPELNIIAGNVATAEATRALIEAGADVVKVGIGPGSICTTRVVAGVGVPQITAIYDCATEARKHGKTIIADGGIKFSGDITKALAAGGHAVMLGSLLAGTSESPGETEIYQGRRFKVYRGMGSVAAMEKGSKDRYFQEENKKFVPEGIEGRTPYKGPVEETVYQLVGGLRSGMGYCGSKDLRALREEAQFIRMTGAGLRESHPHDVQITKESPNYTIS", "test": "kinetic assay with purified GuaB"}, "HprT": {"molecular_target": "HprT (Bacillus subtilis, UniProt P37472)", "sequence (P37472 whole entry)": "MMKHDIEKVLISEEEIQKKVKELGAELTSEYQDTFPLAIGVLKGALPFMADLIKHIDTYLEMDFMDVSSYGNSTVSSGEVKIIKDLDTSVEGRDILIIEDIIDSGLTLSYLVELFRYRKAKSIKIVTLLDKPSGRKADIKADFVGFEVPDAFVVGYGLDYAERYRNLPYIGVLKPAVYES", "test": "kinetic assay with purified HprT"}, "Gmk (guanylate kinase)": {"molecular_target": "Gmk (guanylate kinase) (Bacillus subtilis, UniProt O34328)", "sequence (O34328 whole entry)": "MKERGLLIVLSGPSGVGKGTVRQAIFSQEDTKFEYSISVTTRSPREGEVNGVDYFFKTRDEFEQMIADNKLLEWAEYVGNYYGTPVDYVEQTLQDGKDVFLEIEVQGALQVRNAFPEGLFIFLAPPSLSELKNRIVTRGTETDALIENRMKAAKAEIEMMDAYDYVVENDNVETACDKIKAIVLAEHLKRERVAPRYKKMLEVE", "test": "PK/LDH coupled enzymatic assay with purified Gmk"}}}
{"smiles": "Nc1nc2c(ncn2[C@@H]2O[C@H](COP(=O)(O)OP(=O)(O)O)[C@@H](OP(=O)(O)OP(=O)(O)O)[C@H]2O)c(=O)[nH]1", "note": "[ppGpp]", "values": [{"measurement": "IC50", "setting": "GuaB (IMP dehydrogenase)", "value": "~500", "unit": "µM"}, {"measurement": "IC50", "setting": "HprT", "value": "~11", "unit": "µM"}, {"measurement": "IC50", "setting": "Gmk (guanylate kinase)", "value": "~20", "unit": "µM"}]}
{"smiles": "Nc1nc2c(ncn2[C@@H]2O[C@H](COP(=O)(O)OP(=O)(O)OP(=O)(O)O)[C@@H](OP(=O)(O)OP(=O)(O)O)[C@H]2O)c(=O)[nH]1", "note": "[pppGpp]", "values": [{"measurement": "IC50", "setting": "GuaB (IMP dehydrogenase)", "value": "~300", "unit": "µM"}, {"measurement": "IC50", "setting": "HprT", "value": "~11", "unit": "µM"}, {"measurement": "IC50", "setting": "Gmk (guanylate kinase)", "value": "~20", "unit": "µM"}]}
